The source of these data is US11911483B2, “Modified self-immolating moieties for use in prodrugs and conjugates and methods of using and making” (BRISTOL-MYERS SQUIBB COMPANY, priority 2018, dated 2024).

The target of data set [1] is Cathepsin B (Homo sapiens, UniProt P07858). As to the kind of experiment: Cathepsin B cleavage of linkers. The class given is biochemical. The note with it: Cathepsin B buffer pH 5.5, 37° C. As for the experimental part:
The following procedure was used for testing the cathepsin B cleavage of linkers.
7.5 μL of test compound (0.5 mM in DMSO) was transferred to individual tube containing 135 μl of Cathepsin B buffer (25 mM Sodium Acetate, 1 mM EDTA, 1 mM DTT, pH 5.5) and the digestion was started by the addition of 7.5 μl of the diluted Cathepsin B enzyme (Activated, 1.45 μM, 0.1 units). The samples were incubated at 37° C. for 24 h. After 24 h, a 20 μL aliquot was taken and quenched with 80 μL of 75:25:0.1 MeOH:acetonitrile:formic acid. Negative control was also included, without the addition of Cathepsin B. A control compound (structure below) was digested similarly and included as positive control. After quenching, all samples were held at −20° C. for 1 h and further centrifuged at 14,000 rpm for 5 min. The supernatant was transferred to a fresh tube and put in an UPLC autosampler for analysis, per the procedure of the preceding example.
In the above structure, “Tub” denotes a tubulysin analog (Cheng et al., U.S. Pat. No. 8,394,922 B2 (2013). The valine-citrulline (Val-Cit) dipeptide is a known substrate for cathepsin B.

Data set [2] in a line: Blood serum stability in human serum. In kind it is in vitro ADME. The note with it: 37° C. As to the method:
(§1) The samples were incubated at 37° C. for 0, 1, 2, 4, and 24 hours. After each of the time points, an aliquot of 20 μl was taken from the samples and quenched with 60 μl of 75:25:0.1 MeOH:acetonitrile:formic acid. After quenching, all samples were held at −20° C. for 1 hour and further centrifuged at 14000 rpm for 15 mins. The supernatant was transferred to a fresh vial and stored at −20° C. until analysis. Samples were analyzed using LC-MS/MS on Agilent 6530 Q-TOF mass spectrometer connected to an Agilent 1290 UPLC. 3 μL of samples were injected onto a Waters BEH C18 Column (2.1×50 mm, 1.7 μm) maintained at 60° C. […] The total run time is 9.5 min.

Data set [3] in a line: Blood serum stability in mouse serum. The class given is in vitro ADME. As for the experimental part:
as §1

Molecules are shown by their SMILES.

Regarding `CCCCOc1nc(N)c2nc(O)n(Cc3ccc(CN(CCCC)C(=O)OCc4ccc(NC(=O)[C@H](CCCNC(N)=O)NC(=O)[C@@H](NC(=O)[C@H](CCC(=O)O)NC(=O)CCCCCN5C(=O)C=CC5=O)C(C)C)cc4)cc3)c2n1` [Compound B], the “Cathepsin B Cleavage (% cleaved after 24 hours)” value in data set [1] was found to be 100 % cleaved. Also, the “Stability in Human Serum (% cleaved after 24 hours)” value in data set [2] came out at 0 % cleaved. Besides, the “Stability in Mouse Serum (% cleaved after 24 hours)” value in data set [3] (mouse serum, 37° C., 24 hours) came to 50 % cleaved. Moreover, the “Stability in mouse serum (in words)” value in data set [3] (text summary of Table C) is reported as “unstable in mouse serum”.
